Measurements as given in patent US20220048888A1, “PYRIMIDINYL-HETEROARYLOXY-NAPHTHYL COMPOUNDS AND METHODS OF USE” (Genentech, Inc., priority 2018, published 2022).
pIC50: −log10 of the molar value.

Biological target: T1, kinase domain of IRE1 alpha (Homo sapiens, UniProt O75460, D688N)
T1 construct: (KR, AA G547-L977, D688N); made in house; host or cells: Sf9 insect cells
Experiment: IRE1α TR-FRET competition binding assay
Settings: Kinase Tracer 236 0.1 μM; kinase dead IRE1 alpha KR construct
Method: To determine the affinity of compound binding to the kinase domain of IRE1 alpha, a Time Resolved Fluorescence Resonance Energy Transfer (TR-FRET) competition assay was used. A His-tagged IRE1 alpha kinase dead construct containing the kinase and RNase domains (KR, AA G547-L977, D688N) was expressed in Sf9 insect cells. The purified protein (final concentration 0.006 OA micromolar) was pre-incubated with anti-His Europium labeled antibody (Life Technologies PV5596, final concentration 0.002 OA micromolar) for one hour at 4° C. in 1×TR-FRET Assay Buffer (50 mM HEPES, pH 7.5, 10 mM MgCl2, 0.083 mM Brij 35, 1 mM DTT, and 0.1% bovine gamma globulin) prior to addition to test compounds. A fluorescent labeled probe based on an ATP competitive inhibitor (Kinase Tracer 236, Life Technologies PV5592) is added to a final concentration of 0.1 μM (micromolar). Reactions were carried out for one hour at room temperature in a final volume of 20 μL (microliter) in 384 well white ProxiPlates (Perkin Elmer 6008289). Binding of the tracer to the IRE1 protein alpha was detected in an Envision instrument (PerkinElmer) equipped with a TRF laser option and a LANCE/Delfia Dual/Bias D400/D630 mirror (Ex 347 nm, 1st Em 665 nm, 2nd Em 615 nm).
Exemplary compounds depicted in Table 1 were tested in the IRE1α binding assays.

T1 sequence (O75460 547-977 D688N): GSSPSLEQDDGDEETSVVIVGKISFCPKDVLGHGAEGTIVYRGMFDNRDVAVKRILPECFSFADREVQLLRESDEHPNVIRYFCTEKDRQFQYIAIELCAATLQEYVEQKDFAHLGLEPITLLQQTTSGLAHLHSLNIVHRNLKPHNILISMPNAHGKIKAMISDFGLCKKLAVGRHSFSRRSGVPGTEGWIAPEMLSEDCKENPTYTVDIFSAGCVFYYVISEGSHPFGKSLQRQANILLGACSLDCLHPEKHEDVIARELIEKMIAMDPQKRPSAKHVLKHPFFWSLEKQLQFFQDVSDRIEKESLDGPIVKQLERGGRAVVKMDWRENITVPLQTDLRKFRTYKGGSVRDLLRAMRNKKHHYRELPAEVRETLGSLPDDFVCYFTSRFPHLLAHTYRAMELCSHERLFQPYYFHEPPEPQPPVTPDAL

Row | SMILES | pIC50
1 | Cc1ccc2c(NS(=O)(=O)c3ccccc3Cl)cccc2c1Oc1nnccc1-c1ccnc(N[C@H]2CCCNC2)n1 [Compound 1, (S)-2-chloro-N-(6-methyl-5-((4-(2-(piperidin-3-ylamino)pyrimidin-4-yl)pyridazin-3-yl)oxy)naphthalen-1-yl)benzenesulfonamide] | 8.21
2 | Cc1ccc2c(NS(=O)(=O)CCC(C)(F)F)c(F)ccc2c1Oc1nnccc1-c1ccnc(N[C@@H]2CNC[C@@H](F)C2)n1 [Compound 5, 3,3-difluoro-N-[2-fluoro-6-methyl-5-[4-[2-[[-(3S,5S)-5-fluoro-3-piperidyl]amino]pyrimidin-4-yl]pyridazin-3-yl]oxy-1-naphthyl]butane-1-sulfonamide] | 8.51
3 | CCCS(=O)(=O)Nc1cccc2c(Oc3nnccc3-c3ccnc(N[C@H]4CCCNC4)n3)c(C)ccc12 [Compound 3, (S)-N-(6-methyl-5-((4-(2-(piperidin-3-ylamino)pyrimidin-4-yl)pyridazin-3-yl)oxy)naphthalen-1-yl)propane-1-sulfonamide] | 7.92
4 | CCCS(=O)(=O)Nc1c(F)ccc2c(Oc3ncncc3-c3ccnc(N[C@@H]4CNC[C@@H](F)C4)n3)c(C)ccc12 [Compound 4, N-(2-fluoro-5-((2-(((3S,5S)-5-fluoropiperidin-3-yl)amino)-[4,5′-bipyrimidin]-4′-yl)oxy)-6-methylnaphthalen-1-yl)propane-1-sulfonamide] | 8.48
5 | CCCS(=O)(=O)Nc1c(F)ccc2c(Oc3nnccc3-c3ccnc(N[C@@H]4CNC[C@@H](F)C4)n3)c(C)ccc12 [Compound 6, N-(2-fluoro-5-((4-(2-(((3S,5S)-5-fluoropiperidin-3-yl)amino)pyrimidin-4-yl)pyridazin-3-yl)oxy)-6-methylnaphthalen-1-yl)propane-1-sulfonamide] | 8.15
6 | Cc1ccc2c(NC(=O)C3CC3)cccc2c1Oc1nnccc1-c1ccnc(N[C@H]2CCCNC2)n1 [Compound 2, (S)-N-(6-methyl-5-((4-(2-(piperidin-3-ylamino)pyrimidin-4-yl)pyridazin-3-yl)oxy)naphthalen-1-yl)cyclopropanecarboxamide] | 7.42

Tested on: cells
Experiment: not given
Settings: high levels; cited from earlier work

Row | SMILES | toxicity in cells
7 | Cc1cc(=O)oc2c(C=O)c(O)ccc12 [Compound 4μ8C] | no measurable toxicity
